Reference: ChEMBL document CHEMBL5252631, “A pharmacophore-based approach to demonstrating the scope of alcohol dehydrogenases” (Bioorg Med Chem, 2023)

What was measured:
[1] = Substrate activity at ADH105 (unknown origin) assessed as specific enzyme activity using NADH as cofactor at 2.5 to 10 mM measured for 30 mins in presence of Tris HCL buffer by UV-Vis spectroscopy analysis; details: Homo sapiens, dose 2.5-10 mM
[2] = Substrate activity at ADH19 (unknown origin) assessed as specific enzyme activity using NADPH as cofactor at 2.5 to 10 mM measured for 30 mins in presence of Tris HCL buffer by UV-Vis spectroscopy analysis; details: Homo sapiens, dose 2.5-10 mM
[3] = Substrate activity at ADH61 (unknown origin) assessed as specific enzyme activity using NADPH as cofactor at 2.5 to 10 mM measured for 30 mins in presence of Tris HCL buffer by UV-Vis spectroscopy analysis; details: Homo sapiens, dose 2.5-10 mM
[4] = Substrate activity at ADH105 (unknown origin) assessed as specific enzyme activity using NADH as cofactor at 2.5 to 10 mM measured for 30 mins in presence of 20% hexane-Tris HCL buffer by UV-Vis spectroscopy analysis; details: dose 2.5-10 mM
[5] = Substrate activity at ADH101 (unknown origin) assessed as specific enzyme activity using NADH as cofactor at 2.5 to 10 mM measured for 30 mins in presence of Tris HCL buffer by UV-Vis spectroscopy analysis; details: dose 2.5-10 mM
[6] = Substrate activity at ADH101 (unknown origin) assessed as specific enzyme activity using NADH as cofactor at 2.5 to 10 mM measured for 30 mins in presence of 20% hexane-Tris HCL buffer by UV-Vis spectroscopy analysis; details: Homo sapiens, dose 2.5-10 mM
[7] = Substrate activity at ADH20 (unknown origin) assessed as specific enzyme activity using NADPH as cofactor at 2.5 to 10 mM measured for 30 mins in presence of Tris HCL buffer by UV-Vis spectroscopy analysis; details: Homo sapiens, dose 2.5-10 mM
[8] = Substrate activity at ADH150 (unknown origin) assessed as specific enzyme activity using NADPH as cofactor at 2.5 to 10 mM measured for 30 mins in presence of Tris HCL buffer by UV-Vis spectroscopy analysis; details: Homo sapiens, dose 2.5-10 mM

SMILES | Activity [1] [nmol/min/mg] | Activity [2] [nmol/min/mg] | Activity [3] [nmol/min/mg] | Activity [4] [nmol/min/mg] | Activity [5] [nmol/min/mg] | Activity [6] [nmol/min/mg] | Activity [7] [nmol/min/mg] | Activity [8] [nmol/min/mg]
CC(=O)c1ccc(O)cc1 | 39.5 | 12.8 | 12.7 | 31.5 | – | – | – | –
O=C(c1ccccc1)C(F)(F)F | 19.1 | – | – | 29.4 | 9.22 | 46.2 | – | –
CC(=O)c1cccc(Br)c1 | 1.9 | – | – | 142 | 19.9 | 12.2 | – | –
CC(=O)c1cc[nH]n1 | – | 10.3 | 10.7 | 20.7 | – | 5.6 | 24.1 | 11.8
CC(=O)c1ccc(Br)cc1O | – | – | – | 27.2 | 112 | 10 | – | –
CC(=O)c1cnccn1 | – | – | – | 185 | – | 53.2 | – | –
CNCC(=O)c1cccc(O)c1 | 20.8 | 6.78 | – | 17.4 | – | 12.4 | 67.2 | 38.6
CC(=O)c1ccccc1Br | 6.37 | – | – | 39.5 | 75.1 | 38 | – | –
COc1ccc(C(C)=O)cc1 | – | – | – | 221 | – | 24.6 | – | –
CC(=O)/C=C/c1ccccc1 | 6.97 | – | – | 62.1 | 60.7 | 67.2 | – | –
CC(=O)c1cnc2ccccc2c1 | – | – | – | 229 | – | 13.7 | – | –
CC(C)(C)NCC(=O)c1cc(Cl)c(N)c(Cl)c1 | – | 10.4 | 29 | 34.6 | – | – | 18.8 | 6.55
CC(=O)c1ccc(Cl)nc1 | 371 | – | – | 92 | 32.2 | 62.5 | – | –
CC(=O)c1ccc([N+](=O)[O-])cc1 | – | – | – | 593 | 99.9 | 130 | – | –
O=c1[nH]c(=O)c2nc[nH]c2[nH]1 | 9.28 | – | – | 15.9 | 319 | – | – | –
CC(=O)c1cc(C(F)(F)F)cc(C(F)(F)F)c1 | 29.6 | – | – | 57.3 | 4.51 | 17.4 | – | –
CC(=O)c1ccc(F)cc1 | 86.4 | – | – | 122 | 26.4 | 22.9 | – | –
CC(=O)c1ccc(F)nc1 | 182 | – | – | 137 | 24.7 | 51 | – | –
O=C(CBr)c1ccccc1 | 18.7 | – | – | 337 | 44.6 | 89.2 | – | –
COc1ccccc1C(C)=O | 13.4 | – | – | 83 | 2.46 | – | – | –

SMILES | Activity [1] [nmol/min/mg] | Activity [2] [nmol/min/mg] | Activity [3] [nmol/min/mg] | Activity [4] [nmol/min/mg] | Activity [5] [nmol/min/mg] | Activity [6] [nmol/min/mg] | Activity [7] [nmol/min/mg] | Activity [8] [nmol/min/mg]
CC(=O)c1ccccn1 | 70.4 | – | – | 60.3 | 22.2 | 35.5 | – | –
CC(=O)c1ccccc1 | 142 | – | – | 99.1 | 43.1 | 54.1 | – | –
COc1ccc2[nH]cc(CCNC(C)=O)c2c1 | – | – | – | 21.7 | – | – | – | –
COc1cc(OC)cc(C(C)=O)c1 | – | – | – | 363 | – | 59.2 | – | –
CCc1ccc(OC)c(C(C)=O)c1 | 14.1 | – | – | 64 | 49.8 | 52.9 | – | –
CC(=O)C1CC1 | – | – | – | 98.2 | – | 82.8 | – | –
CC(=O)c1cncnc1 | – | – | – | 50.5 | – | 45.2 | – | –
CC(=O)c1ccc(I)cc1 | – | – | – | 117 | – | 51.3 | – | –
CC(=O)c1cc(F)ccc1O | – | – | – | – | – | 42.8 | – | –
COc1cc(C(C)=O)cc(OC)c1OC | 154 | – | – | 89.9 | 11.7 | – | – | –
CC(=O)c1ccc(Br)cc1F | – | – | – | 366 | 15.9 | 57.7 | – | –
CC(=O)c1ccccc1O | 23.1 | – | – | – | 11.3 | – | – | –
CC(=O)c1ccc(Br)c(F)c1 | – | – | – | 242 | 46.3 | 103 | – | –
CC(=O)c1ccc(C[C@H](N)C(=O)O)cc1 | – | 7.76 | 123 | 62.2 | – | 10.2 | 55.7 | 33.7
CC(=O)C1CCCCC1 | 233 | – | – | 112 | 167 | 52.3 | – | –
CC(=O)c1cccnc1 | 121 | – | – | 163 | 9.45 | 34 | – | –
CCOc1ccc(C(C)=O)cc1 | 81.1 | – | – | 196 | 4.37 | 19.9 | – | –
O=C(c1ccccc1)c1ccccc1 | 12.8 | – | – | 14.3 | 35.7 | 73.9 | 41.1 | 69.9
CCCCCCCCC(C)=O | 8.95 | – | – | 37.1 | 39.5 | 25.7 | – | –
CC(=O)Cc1ccccc1 | 274 | – | – | 239 | 5.98 | 22.2 | – | –

SMILES | Activity [1] [nmol/min/mg] | Activity [2] [nmol/min/mg] | Activity [3] [nmol/min/mg] | Activity [4] [nmol/min/mg] | Activity [5] [nmol/min/mg] | Activity [6] [nmol/min/mg] | Activity [7] [nmol/min/mg] | Activity [8] [nmol/min/mg]
COc1ccc2c(c1)CCCC2=O | 9 | 14.3 | 56.4 | 36 | 6.9 | – | 31.3 | 7.83
CC(=O)c1ccc(NS(C)(=O)=O)cc1 | – | – | – | 203 | – | – | – | –
CC(=O)c1ccc2c(c1)OCO2 | 70.1 | – | – | 189 | 17.7 | 34.2 | – | –
O=C1CN2CCC1CC2 | 13 | – | – | 23.4 | – | 85.3 | – | –
CC(=O)CCc1ccccc1 | – | – | – | 364 | 109 | 95.7 | – | –
CC(=O)c1cccc(O)c1 | 82.4 | – | – | 157 | 4.76 | 14.8 | – | –
COc1ccc(C(C)=O)cc1OC | – | – | – | 220 | – | 59.8 | – | –
CC(=O)c1ccc(Br)nc1 | – | – | – | 269 | – | 33.2 | – | –
CC(=O)c1ccc(Br)cc1 | 56.1 | – | – | 158 | 38.1 | 73.1 | – | –
O=C(CCl)c1ccc(F)c(F)c1 | 131 | – | – | 112 | 83.1 | 87.1 | – | –
CC(=O)c1ccc2ccccc2c1 | – | – | – | 54 | 7.68 | 37 | – | –
CC(=O)c1ccc(N)cc1 | 21.3 | – | – | 80.4 | 5.03 | 43.9 | – | –
COc1cccc(C(C)=O)c1 | – | – | – | 397 | – | 13.8 | – | –
CC(=O)c1nccn1C | – | – | – | 20.7 | – | 14.7 | – | –
CC(=O)C1CCCC1 | – | – | – | 218 | – | 123 | – | –
CC(=O)c1ccc(C(F)(F)F)nc1 | – | – | – | 210 | – | 80.9 | – | –
CC(=O)c1cccc(C#N)c1 | – | – | – | 173 | – | 57.4 | – | –
CC(=O)c1ccc(B2OC(C)(C)C(C)(C)O2)cc1 | – | – | – | 87 | – | 465 | – | –
